The text below walks through data of patent US9340590B2 (priority 2011, dated 2016).

Like-named read-outs stand apart in the source and are kept apart here. Positions of bridges follow the written chain, without caps; N, C: chain ends. Residues, ends and D or L forms follow the SMILES beside them.

The target of data set [1] is hNav1.3 (Homo sapiens, UniProt Q9NY46). In words: cell-based. Type of data set: cell-based.
The conditions of data set [2]: rat plasma, 37° C.
Data set [3] concerns the target T1, hNav1.7 (Homo sapiens, UniProt Q15858). Kind of data set: cell-based. As to conditions: Nav1.7 Use IC50.
For data set [4], the target named is T2, hNav1.5 (Homo sapiens, UniProt Q14524). Kind of data set: cell-based. To be noted: read-out: Nav1.5 Use IC50.
T2 sequence (Q14524 whole entry, looked up): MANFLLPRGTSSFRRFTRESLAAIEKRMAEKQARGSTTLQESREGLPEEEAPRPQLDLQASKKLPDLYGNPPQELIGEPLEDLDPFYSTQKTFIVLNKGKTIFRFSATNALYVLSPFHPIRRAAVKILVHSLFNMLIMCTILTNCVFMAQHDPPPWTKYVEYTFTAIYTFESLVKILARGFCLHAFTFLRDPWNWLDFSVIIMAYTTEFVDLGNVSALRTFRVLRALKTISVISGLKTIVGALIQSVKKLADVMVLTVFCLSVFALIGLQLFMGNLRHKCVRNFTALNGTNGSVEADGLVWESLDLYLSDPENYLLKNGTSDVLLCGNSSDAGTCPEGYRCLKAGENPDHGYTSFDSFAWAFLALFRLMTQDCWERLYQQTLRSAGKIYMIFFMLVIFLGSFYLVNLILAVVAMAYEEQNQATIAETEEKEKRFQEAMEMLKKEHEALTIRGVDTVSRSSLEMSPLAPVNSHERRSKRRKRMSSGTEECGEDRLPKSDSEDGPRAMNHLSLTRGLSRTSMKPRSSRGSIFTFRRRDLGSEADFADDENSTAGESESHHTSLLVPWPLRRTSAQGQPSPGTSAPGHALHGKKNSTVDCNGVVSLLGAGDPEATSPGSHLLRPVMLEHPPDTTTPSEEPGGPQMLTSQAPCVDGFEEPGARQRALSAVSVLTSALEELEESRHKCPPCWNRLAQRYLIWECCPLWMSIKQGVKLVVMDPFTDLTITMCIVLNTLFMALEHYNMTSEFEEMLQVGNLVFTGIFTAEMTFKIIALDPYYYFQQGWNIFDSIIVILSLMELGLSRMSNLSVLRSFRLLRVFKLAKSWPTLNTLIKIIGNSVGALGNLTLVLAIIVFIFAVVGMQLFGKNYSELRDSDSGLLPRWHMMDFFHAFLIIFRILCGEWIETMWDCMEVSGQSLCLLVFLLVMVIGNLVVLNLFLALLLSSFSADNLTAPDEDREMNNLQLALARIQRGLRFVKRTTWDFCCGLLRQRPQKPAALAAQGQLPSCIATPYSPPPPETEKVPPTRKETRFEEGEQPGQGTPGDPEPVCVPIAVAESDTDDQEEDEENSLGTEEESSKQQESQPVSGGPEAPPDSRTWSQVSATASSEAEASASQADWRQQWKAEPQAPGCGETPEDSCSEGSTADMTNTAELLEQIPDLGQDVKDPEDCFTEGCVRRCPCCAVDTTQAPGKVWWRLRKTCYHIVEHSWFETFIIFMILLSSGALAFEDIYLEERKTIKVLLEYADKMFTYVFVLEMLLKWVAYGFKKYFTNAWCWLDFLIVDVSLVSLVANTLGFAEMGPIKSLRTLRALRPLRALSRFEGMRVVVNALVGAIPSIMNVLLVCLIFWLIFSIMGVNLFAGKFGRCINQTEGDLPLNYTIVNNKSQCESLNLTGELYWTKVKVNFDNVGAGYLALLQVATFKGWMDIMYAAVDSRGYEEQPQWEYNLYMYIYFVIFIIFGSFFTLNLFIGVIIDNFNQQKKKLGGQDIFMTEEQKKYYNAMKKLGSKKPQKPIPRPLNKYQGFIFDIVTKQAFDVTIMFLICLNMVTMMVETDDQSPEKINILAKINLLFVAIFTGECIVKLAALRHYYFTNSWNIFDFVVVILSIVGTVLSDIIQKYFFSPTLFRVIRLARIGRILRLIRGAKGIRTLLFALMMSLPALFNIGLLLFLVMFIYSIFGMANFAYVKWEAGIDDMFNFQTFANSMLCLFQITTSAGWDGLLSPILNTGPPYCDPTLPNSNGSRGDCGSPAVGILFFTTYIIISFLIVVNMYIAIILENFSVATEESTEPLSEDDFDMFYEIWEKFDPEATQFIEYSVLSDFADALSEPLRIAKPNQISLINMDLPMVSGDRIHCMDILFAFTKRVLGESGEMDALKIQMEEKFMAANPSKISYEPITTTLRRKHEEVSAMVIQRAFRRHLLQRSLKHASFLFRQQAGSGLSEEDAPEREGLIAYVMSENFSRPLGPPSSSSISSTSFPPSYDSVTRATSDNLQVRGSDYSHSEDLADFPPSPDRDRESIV
Data set [5] is described as follows: in vivo. As to conditions: male, CD-1, mouse, sc, 5 mg/kg, terminal exposure (peptide plasma concentration at 2 h post peptide injection), later studies, 5 mg/kg s.c.
A short description of data set [6]: in vivo. To be noted: male, CD-1, mouse, sc, 5 mg/kg, terminal exposure (peptide plasma concentration at 45 min post formalin injection).
The subject of data set [7] is veratridine-induced spontaneous nociceptive behaviors in male CD-1 mice. To be noted: mouse, in vivo.
Data set [8] deals with NaV1.7. As to conditions: read-out: EC50, impairs fast inactivation; cited from earlier work.
For data set [9] the following is noted: rat, in vivo, 0.1 mg/kg; cited from earlier work.
The subject of data set [10] is mechanical hyperalgesia. To be noted: rat, in vivo; cited from earlier work.
Data set [11] has as its system C-fiber compound action potential. To be noted: cited from earlier work.
For data set [12], the target named is T2, hNav1.5. The data set is classed as cell-based.
For data set [13], the target named is hNav1.4 (Homo sapiens, UniProt P35499). In words: cell-based. To be noted: read-out: Nav1.4 Use IC50.
Data set [14] addresses T1, hNav1.7. Type of data set: cell-based.

One may read the IC50 as the point on the concentration scale where inhibition reaches its midpoint. A word on the EC50: it is the concentration at which the effect is half-maximal.

T1 sequence (Q15858 whole entry, looked up): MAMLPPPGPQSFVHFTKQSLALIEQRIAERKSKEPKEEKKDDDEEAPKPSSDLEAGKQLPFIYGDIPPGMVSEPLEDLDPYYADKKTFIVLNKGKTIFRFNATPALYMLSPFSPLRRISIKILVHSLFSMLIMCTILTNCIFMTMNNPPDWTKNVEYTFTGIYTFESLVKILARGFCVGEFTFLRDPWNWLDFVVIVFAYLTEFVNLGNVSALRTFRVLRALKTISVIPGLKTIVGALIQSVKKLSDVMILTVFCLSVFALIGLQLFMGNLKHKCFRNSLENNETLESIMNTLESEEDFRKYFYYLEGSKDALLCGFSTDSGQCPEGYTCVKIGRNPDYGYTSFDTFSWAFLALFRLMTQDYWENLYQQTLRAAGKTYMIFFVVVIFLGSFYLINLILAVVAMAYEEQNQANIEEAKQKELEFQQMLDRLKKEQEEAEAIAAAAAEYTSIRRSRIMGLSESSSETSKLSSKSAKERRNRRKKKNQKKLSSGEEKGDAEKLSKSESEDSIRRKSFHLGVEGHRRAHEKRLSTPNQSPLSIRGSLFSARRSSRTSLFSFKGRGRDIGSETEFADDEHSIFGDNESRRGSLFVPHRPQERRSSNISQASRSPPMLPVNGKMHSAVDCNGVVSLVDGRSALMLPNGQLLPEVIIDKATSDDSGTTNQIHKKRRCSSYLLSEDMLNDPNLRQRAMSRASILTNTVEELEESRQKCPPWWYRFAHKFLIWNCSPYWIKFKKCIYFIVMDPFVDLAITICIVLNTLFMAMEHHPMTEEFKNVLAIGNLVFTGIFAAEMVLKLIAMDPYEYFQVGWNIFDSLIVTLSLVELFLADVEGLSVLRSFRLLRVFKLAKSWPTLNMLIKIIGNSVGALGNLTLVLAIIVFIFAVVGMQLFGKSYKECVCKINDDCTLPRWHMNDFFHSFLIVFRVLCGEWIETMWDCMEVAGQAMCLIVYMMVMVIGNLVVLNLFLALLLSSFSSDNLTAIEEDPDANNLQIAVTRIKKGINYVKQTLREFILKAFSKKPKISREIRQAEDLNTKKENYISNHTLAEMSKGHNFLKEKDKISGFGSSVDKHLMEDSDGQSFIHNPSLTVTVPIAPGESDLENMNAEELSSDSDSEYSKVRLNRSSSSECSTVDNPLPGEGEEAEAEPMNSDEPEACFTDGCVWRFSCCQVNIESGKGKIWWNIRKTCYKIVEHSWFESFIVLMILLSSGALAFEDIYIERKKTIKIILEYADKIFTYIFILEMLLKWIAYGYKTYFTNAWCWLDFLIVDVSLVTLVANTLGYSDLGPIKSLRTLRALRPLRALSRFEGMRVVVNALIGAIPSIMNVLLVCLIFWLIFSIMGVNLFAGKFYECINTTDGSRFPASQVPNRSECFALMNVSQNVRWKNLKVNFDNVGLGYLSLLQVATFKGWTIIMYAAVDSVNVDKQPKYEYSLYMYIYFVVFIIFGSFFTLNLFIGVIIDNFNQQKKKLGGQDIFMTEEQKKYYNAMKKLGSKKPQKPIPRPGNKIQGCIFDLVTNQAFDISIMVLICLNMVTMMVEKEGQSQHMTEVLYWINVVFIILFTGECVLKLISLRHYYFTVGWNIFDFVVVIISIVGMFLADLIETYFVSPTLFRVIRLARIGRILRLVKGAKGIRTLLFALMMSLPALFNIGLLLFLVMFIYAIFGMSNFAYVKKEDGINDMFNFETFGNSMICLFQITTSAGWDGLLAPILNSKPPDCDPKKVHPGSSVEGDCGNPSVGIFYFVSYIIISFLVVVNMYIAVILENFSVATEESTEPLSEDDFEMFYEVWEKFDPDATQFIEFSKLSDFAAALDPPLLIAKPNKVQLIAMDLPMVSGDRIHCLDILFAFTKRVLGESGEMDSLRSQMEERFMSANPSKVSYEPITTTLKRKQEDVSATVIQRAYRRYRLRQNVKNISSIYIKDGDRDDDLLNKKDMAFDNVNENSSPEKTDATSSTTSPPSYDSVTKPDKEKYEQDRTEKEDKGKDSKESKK

`CSCC[C@@H]1NC(=O)[C@H](Cc2ccccc2)NC(=O)CNC(=O)[C@H](CC(C)C)NC(=O)[C@@H](NC(=O)[C@@H](N)CC(=O)O)CSSC[C@@H]2NC(=O)[C@@H]3CSSC[C@@H](C(=O)N[C@@H](CCCCN)C(=O)N[C@@H](Cc4ccc(O)cc4)C(=O)N[C@H](C(=O)N[C@@H](Cc4ccccc4)C(N)=O)C(C)C)NC(=O)[C@H](Cc4c[nH]c5ccccc45)NC(=O)[C@H](CCCCN)NC(=O)[C@H](Cc4c[nH]cn4)NC(=O)[C@H]([C@@H](C)O)NC(=O)[C@H](CCCNC(=N)N)NC(=O)[C@H](CO)NC(=O)[C@H](CSSC[C@H](NC(=O)[C@H](CCCCN)NC(=O)[C@H](CCCNC(=N)N)NC1=O)C(=O)N[C@@H](Cc1cccc4ccccc14)C(=O)N1CCC[C@H]1C(=O)N[C@@H](CC(=O)O)C(=O)N[C@@H](CC(N)=O)C(=O)N[C@@H](CC(=O)O)C(=O)N[C@@H](CCCCN)C(=O)N3)NC(=O)[C@H](C(C)C)NC(=O)[C@H](CC(C)C)NC(=O)[C@H](CC(N)=O)NC(=O)[C@@H]1CCCN1C(=O)[C@H](CCCNC(=N)N)NC2=O` [[1-Nal10]GpTx-1(1-34)]: the half-inhibitory concentration (IC50) in [1] (Nav1.3 Use IC50) turned out to be 39 nM; in data set [3], 5 nM; in data set [4], 12.9 µM. Further, the “% peptide remaining” value amounted to 100% in data set [2] (incubation time 0 hr); 104% in data set [2] (incubation time 2 hr); 106% in [2] (incubation time 4 hr); 108% in data set [2] (incubation time 6 hr); 112% in [2] (incubation time 8 hr); 89% in data set [2] (incubation time 24 hr).
Regarding `CC[C@H](C)[C@@H]1NC(=O)[C@@H]2CSSC[C@@H]3NC(=O)[C@H](C(C)C)NC(=O)[C@H](CC(C)C)NC(=O)[C@H](CC(N)=O)NC(=O)[C@@H]4CCCN4C(=O)[C@H](CCCNC(=N)N)NC(=O)[C@H](CSSC[C@H](NC(=O)[C@@H](N)CC(=O)O)C(=O)N[C@@H](CC(C)C)C(=O)NCC(=O)N[C@@H](Cc4ccccc4)C(=O)N[C@@H](CCSC)C(=O)N[C@@H](CCCNC(=N)N)C(=O)N[C@@H](CCCCN)C(=O)N2)NC(=O)[C@H](CSSC[C@@H](C(=O)N[C@@H](CCCCN)C(=O)N[C@@H](Cc2ccc(O)cc2)C(=O)N[C@H](C(=O)N[C@@H](Cc2ccccc2)C(N)=O)C(C)C)NC(=O)[C@H](CCC(=O)O)NC(=O)[C@H](CCCCN)NC(=O)[C@H](Cc2cnc[nH]2)NC(=O)[C@H]([C@@H](C)O)NC(=O)[C@H](CCCNC(=N)N)NC(=O)[C@H](CO)NC3=O)NC(=O)[C@H](CCCCN)NC(=O)[C@H](CC(=O)O)NC(=O)[C@H](CC(N)=O)NC(=O)[C@H](CC(=O)O)NC(=O)[C@@H]2CCCN2C1=O` [[Glu29]GpTx-1(1-34)] (H-DCLGFMRKCIPDNDKCCRPNLVCSRTHKECKYVF-NH2; disulfide 2-17, 9-23, 16-30), the level at time molar at 2 h in [5] turned out to be 771 ± 272 nM. In addition, the level at time molar at […] in data set [6] came to 502 ± 271 nM.
As to `Cc1cccc(C)c1OCC(C)N` (stereo not drawn) [mexiletine, reference compound], in [7], the “veratridine-induced paw lifting behavior” value is reported as “significantly reversed”.
As for “GVRDAYIADDKNCVYTCASNGYCNTECTKNGAESGYCQWIGRYGNACWCIKLPDEVPIRIPGKCR [OD1]”, the EC50 in data set [8] was 4.5 nM.
Take “YCQKWMWTCDSERKCCEGMVCRLWCKKKLW [ProTx-II, YCQKWMWTCDSERKCCEGMVCRLWCKKKLW]”: the tolerability in rats result in data set [9] was “lethal”. In addition, in [10], the “efficacy in a mechanical hyperalgesia study” value is reported as “not efficacious”. Also, in data set [11], the “C-fiber compound action potential” value is “completely blocked” and the action potential propagation entry is “little effect”.
With “[Phe6,Atz(2 kDa EtO-PEG*-{[Phe6,Atz13*]GpTx-1(1-34)}) 13]GpTx-1(1-34) [Homodimeric Conjugate 1]”, the “inhibition of the Nav1.5 current” value in data set [12] is reported as “complete inhibition”. Further, the IC50 stood at 75.5 nM in data set [12] (read-out: IC50 against hNav1.5 sodium channels); 57 nM in data set [12] (read-out: IC50 against hNav1.5 sodium channels, partially inactivated); 8 nM in data set [1] (read-out: Nav1.3 Use IC50); 254 nM in data set [13]; 1.43 µM in [4]. Further, the “inhibition of the Nav1.7 current” value in data set [14] is on record as “complete inhibition”.
